According to PubChem BioAssay (NCI):
“And” between values parts separate entries of the source, which are not always exact repeats. Identical values can stand only once.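 Each compound was tested at five concentrations against cells in 96-well plates for 48 hours. Here, GI50 denotes the concentration required for 50% inhibition of growth. Definition used: TGI = concentration required for complete inhibition of growth.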

Key:
Experiment in all cases: DTP human tumour cell line panel, 48 h
SNB-75 CNS = test system: SNB-75 CNS
HL-60(TB) leukemia = test system: HL-60(TB) leukemia
NCI-H226 lung = test system: NCI-H226 lung
IGROV1 ovarian = test system: IGROV1 ovarian
ACHN renal = test system: ACHN renal
HOP-92 NSCLC = test system: HOP-92 NSCLC
SR leukemia = test system: SR leukemia
DU-145 prostate = test system: DU-145 prostate
HS 578T breast = test system: HS 578T breast
BT-549 breast = test system: BT-549 breast

Compound	TGI (SNB-75 CNS) [µM]	TGI (HL-60(TB) leukemia)	TGI (NCI-H226 lung) [µM]	TGI (IGROV1 ovarian) [µM]	TGI (ACHN renal) [µM]	TGI (HOP-92 NSCLC) [µM]	TGI (SR leukemia)	GI50 (SR leukemia)	GI50 (SNB-75 CNS)	GI50 (HL-60(TB) leukemia)	GI50 (NCI-H226 lung)	GI50 (IGROV1 ovarian) [µM]	GI50 (ACHN renal)	GI50 (DU-145 prostate)	TGI (DU-145 prostate) [µM]	GI50 (HS 578T breast) [µM]	TGI (HS 578T breast) [µM]	GI50 (HOP-92 NSCLC) [µM]	GI50 (BT-549 breast)	TGI (BT-549 breast)
CC(CC(=O)N1C(=O)C(C)(C)[C@@H](O)[C@H]1CC(C)C(Cl)(Cl)Cl)C(Cl)(Cl)Cl (stereo not given in full)	> 100	> 100 µM	> 100	> 100	> 100	> 100	–	–	–	–	–	–	–	–	–	–	–	–	–	–
COc1cc(-c2nccc3cc(OC)c(OC)cc23)ccc1O	> 100	67.4 µM	> 100	> 100	> 100	> 100	> 100 µM	–	–	–	–	–	–	–	–	–	–	–	–	–
Oc1ccc(Nc2ccc3ccccc3c2)cc1	35.9	21.3 µM	49.5	18	15.6	32.6	38.3 µM	3.32 µM	2.78 µM	2.66 µM	19 µM	3.75	2.46 µM	4.87 µM	19.2	12.1	57.1	10.2	–	–
Cc1n[nH]c(=S)n(C)c1=S	> 100	–	> 100	> 100	> 100	> 100	–	–	–	–	–	–	–	–	–	–	–	–	–	–
CCC[CH2][Sn]([CH2]CCC)([O]c1cccc2cccnc12)[O]c1cccc2cccnc12	0.563	–	–	2.27	0.853	–	–	–	0.156 µM	–	–	1	0.458 µM	–	–	–	–	–	–	–
CCOC(=O)C(=O)Nc1nc2c(OCC)cccc2s1	> 100	> 100 µM	> 100	> 100	> 100	> 100	–	–	–	–	–	–	–	–	–	–	–	–	–	–
COc1cccc(/C=C/C(=O)c2ccc(SC)cc2)c1OC	30.7	–	–	–	33.7	54.1	79.5 µM	4.43 µM	14.6 µM	–	–	–	17.2 µM	20.4 µM	40.6	25.3	56.6	21.6	20.8 µM	40.5 µM
CC1(C)S[C@@H]2[C@H](N3C(=O)c4ccccc4C3=O)CN2[C@H]1NC(=O)N[C@@H]1N2C[C@@H](N3C(=O)c4ccccc4C3=O)[C@H]2SC1(C)C	> 100	> 100 µM	> 100	> 100	> 100	> 100	–	–	–	–	–	–	–	–	> 100	–	> 100	–	–	–
O=C(CC1(O)C(=O)N(Cc2ccccc2)c2ccc(Cl)cc21)c1ccc(C(=O)NCC2CCC3(CC2)OOC2(CCCCC2)OO3)cc1 (stereo not given)	3.39	–	9.06	0.444	0.357	0.402	0.531 µM	0.214 µM	1.35 µM	–	1.72 µM	0.197	0.18 µM	0.179 µM	0.326	2.11	11.6	0.214	2.42 µM	15 µM
O=C1C(Cl)=C(Nc2ccc(Nc3ccccc3)c(NC3=C(Cl)C(=O)c4ccccc4C3=O)c2)C(=O)c2ccccc21	6.97	4.65 µM	35.6	69.1	–	3.27	–	–	2.3 µM	2.07 µM	16.7 µM	15.9	–	14.9 µM	28.4	1.87	6.36	0.0439	–	–
Cc1ccc(Nc2nccc(N(C)c3ccc4c(C)n(C)nc4c3)n2)cc1S(N)(=O)=O	–	30.6 µM and > 10 µM and 34 µM	> 100	> 100	> 100	–	> 100 µM and > 10 µM and 37.9 µM	4.08 µM and 3.49 µM and 5.95 µM	2.39 µM and 1.03 µM and 5.83 µM	6.45 µM and 1.94 µM and 7.14 µM	0.781 µM and 0.425 µM and 1.41 µM	–	4.08 µM and 3.12 µM and 4.98 µM	5.21 µM and 5.4 µM and 11.5 µM	> 100	–	–	–	1.7 µM and 1.46 µM and 5.02 µM	7.66 µM and > 10 µM and 36.6 µM
COc1cc(/C=C(\NC(=O)c2ccccc2)c2nc3ccc4c(c3[nH]2)C(=O)c2ccccc2C4=O)cc(OC)c1OC	75.3	–	> 100	> 100	–	> 100	–	–	–	–	–	–	–	–	–	–	–	–	–	–
CCCCOC(=O)c1ccc(N)cc1	> 100	> 100 µM	> 100	> 100	> 100	> 100	–	–	41 µM	52.7 µM	63.6 µM	> 100	8.46 µM	> 100 µM	> 100	96.1	> 100	95.1	77.6 µM	> 100 µM
O=S(=O)(CCN1CCOCC1)Nc1cc(-c2ccc3ncnc(Nc4ccc(F)c(Cl)c4)c3c2)cnc1Cl	–	12.4 µM	26.4	0.515	> 100	–	6.96 µM	0.799 µM	–	1.15 µM	0.584 µM	0.137	0.735 µM	0.869 µM	25.6	–	–	–	0.254 µM	2.59 µM
COc1ccc(/C=C2\CN(C(=O)C(Cl)Cl)C/C(=C\c3ccc(OC)cc3)C2=O)cc1	–	7.52 µM	7.65	–	4.7	–	> 100 µM	0.357 µM	–	0.791 µM	2.47 µM	–	1.67 µM	–	–	2.65	> 100	–	2.19 µM	8.13 µM
NC(=NCc1ccccc1)C(N=Nc1ccccc1)C(=O)NCc1ccccc1 (stereo not given)	27.7	27.4 µM	52.6	19.8	39.3	7.38	–	–	13.2 µM	4.64 µM	21.3 µM	3.42	18.1 µM	2.28 µM	6.01	2.92	13.9	1.78	–	–
O=c1[nH]c2ccccc2c2nc3ccccc3n12	–	> 100 µM	–	> 100	> 100	> 100	–	–	–	–	–	–	–	–	> 100	–	> 100	–	–	> 100 µM
N#Cc1c(NCc2ccccc2)nc(NCc2ccccc2)c(C#N)c1-c1ccc(O)cc1	> 100	–	67.1	74.8	57.1	7.96	91.7 µM	7.09 µM	67.8 µM	–	14.3 µM	23.5	16.9 µM	32.4 µM	> 100	22.9	> 100	0.316	32.8 µM	> 100 µM
